Measurements from paper PMC10721329, “Quisinostat is a brain-penetrant radiosensitizer in glioblastoma” (JCI Insight, 2023).
Values joined by “and” are separate entries in the source; they are usually repeats but may differ in a detail not shown here. Equal entries are not always repeated. Where two headings read alike, the source gives them in different places.

Assay: Plasma pharmacokinetics by route of administration (IP, SC, OG)
Assay type: in vivo, athymic nude mice
Details: for AUC(0-t): athymic nude (Foxn1nu), single dose 10 mg/kg, athymic nude mice, read-out: AUClast (plasma)
Description: Because the efficacy of QST in preclinical models of brain tumors remains controversial, and because previous studies employed various drug delivery methods, we sought to understand how different routes of administration affect the bioavailability of QST in mice. Three routes of administration were compared to determine the optimal dosing route to obtain the highest plasma exposure to QST over time. We treated athymic nude mice with a single dose of QST (10 mg/kg) through intraperitoneal (IP), subcutaneous (SC), or oral gavage (OG) delivery and collected blood at 0.5, 1, 2, 4, 6, 8, and 24 hours after dosing from individual mice for PK analysis (Figure 5A). […] Therefore, IP delivery was the optimal route of administration to maximize the bioavailability of QST in athymic nude mice.
QST concentrations in specimens were measured using reverse-phase LC on the AB SCIEX QTRAP6500+ LC-MS/MS system by operating electrospray in the positive ion mode. For liquid chromatographic separation, gradient elution was performed using a Phenomenex Kinetex F5 100 Å column (100 × 2.1 mm, 2.6 μm). The initial composition of the mobile phase was 70% phase A (0.1% formic acid in water) and 30% phase B (0.1% formic acid in 1:1 acetonitrile/methanol) with a 0.35 mL/min flow rate. Gradient elution was achieved as follows: mobile phase (B) was maintained at 30% from 0 to 0.3 minutes, increased to 95% from 0.3 to 0.8 minutes, maintained at 95% from 0.8 to 2.5 minutes, and decreased to 30% from 2.5 to 2.8 minutes. The total run time was 3.5 minutes. The internal standard used in this study was D8-infigratinib. The retention times for QST and D8-infigratinib were 1.6 and 1.8 minutes, respectively. Mass-to-charge ratio transitions were as follows: 395.20 → 144.00 (QST) and 568.08 → 321.00 (D8-infigratinib). LC-MS/MS analysis was performed using an Analyst 1.7 Chromatographic Data System. See Supplemental Methods for detailed PK experiments. […]
Preparation of QST for In Vivo Use
For in vivo preparation, QST was dissolved in 50% polyethylene glycol (PEG) 300, 50% sterile water solution for 10 mg/kg dosing. The suspension was then sonicated for 10 minutes to allow the drug to completely dissolve. Finally, the pH of both the drug and the vehicle solutions was adjusted to 7.4 before intraperitoneal dosing.
Determination of Optimal Administration Route
Foxn1nu nude male mice (The Jackson Laboratory) were used to determine the drug administration route that would result in the best QST bioavailability. Three cohorts of mice were treated with a single dose of 10 mg/kg QST delivered through intraperitoneal, subcutaneous, or oral gavage routes (3 mice per cohort). Following administration of the single dose, approximately 30 µL of blood was drawn from the tip of the tails at the following time points: 0.5, 1, 2, 4, 6, 8, and 24 hours. The collected blood was immediately centrifuged at 3000 rpm for 10 minutes at 4 °C to separate plasma, which was subsequently flash frozen. At the 24 - hour time point, following the last blood sample collection, mice were sacrificed and the whole brains from each mouse were dissected and flash-frozen for subsequent analysis. […]
Calibration Standards and Quality Control Samples
Stock solutions of standard (1 mM QST) and IS (250 µM D8-infigratinib) were prepared in acetonitrile. Working solutions for calibration curve standards and quality controls (QCs) were prepared by dilutions with a 40% methanol mixture aqueous solution. The IS precipitation solution (10 nM) was prepared from the IS stock solutions by dilution with methanol. Calibration standards and batch qualifying QCs were freshly spiked for every batch. For sample analysis in human and mouse matrices, calibration standards were prepared in bulk by spiking appropriate amounts of working solutions into blank human plasma, used as a surrogate matrix due to the instability of QST in mouse plasma. For sample analysis in neural stem cell media and cell […]

Cn1cc(CNCC2CCN(c3ncc(C(=O)NO)cn3)CC2)c2ccccc21 [QST, quisinostat]
[QST] in plasma (IP 10 mg/kg single dose, 0.5 h, individual mice, 10 mg/kg): 347 nmol/L and 1180 nmol/L and 730 nmol/L | [QST] in plasma (IP 10 mg/kg single dose, 1 h, individual mice, 10 mg/kg): 268 nmol/L and 778 nmol/L and 432 nmol/L | [QST] in plasma (IP 10 mg/kg single dose, 2 h, individual mice, 10 mg/kg): 70.8 nmol/L and 154 nmol/L and 237 nmol/L | [QST] in plasma (IP 10 mg/kg single dose, 4 h, individual mice, 10 mg/kg): 22.3 nmol/L and 40.2 nmol/L and 126 nmol/L | [QST] in plasma (IP 10 mg/kg single dose, 6 h, individual mice, 10 mg/kg): 12.5 nmol/L and 15.1 nmol/L and 47 nmol/L | [QST] in plasma (IP 10 mg/kg single dose, 8 h, individual mice, 10 mg/kg): 8.68 nmol/L | [QST] in plasma (IP 10 mg/kg single dose, 24 h, individual mice, 10 mg/kg): 0.963 nmol/L and 0.894 nmol/L | [QST] in plasma (OG 10 mg/kg single dose, 0.5 h, individual mice): not detectable and 7.12 nmol/L | [QST] in plasma (OG 10 mg/kg single dose, 1 h, individual mice): not detectable and 4.92 nmol/L | [QST] in plasma (OG 10 mg/kg single dose, 2 h, individual mice): not detectable and 10.8 nmol/L | [QST] in plasma (OG 10 mg/kg single dose, 4 h, individual mice): not detectable and 44.7 nmol/L and 3.91 nmol/L | [QST] in plasma (OG 10 mg/kg single dose, 6 h, individual mice): not detectable and 5.16 nmol/L | [QST] in plasma (OG 10 mg/kg single dose, 8 h, individual mice): not detectable and 1.29 nmol/L and 4.22 nmol/L | [QST] in plasma (OG 10 mg/kg single dose, 24 h, individual mice): not detectable and 0.965 nmol/L | [QST] in plasma (SC 10 mg/kg single dose, 0.5 h, individual mice, 10 mg/kg): 482 nmol/L and 355 nmol/L | [QST] in plasma (SC 10 mg/kg single dose, 1 h, individual mice, 10 mg/kg): 617 nmol/L and 493 nmol/L | [QST] in plasma (SC 10 mg/kg single dose, 2 h, individual mice, 10 mg/kg): 169 nmol/L and 281 nmol/L and 430 nmol/L | [QST] in plasma (SC 10 mg/kg single dose, 4 h, individual mice, 10 mg/kg): 41.6 nmol/L and 61.2 nmol/L and 96.2 nmol/L | [QST] in plasma (SC 10 mg/kg single dose, 6 h, individual mice, 10 mg/kg): 14.4 nmol/L and 21.7 nmol/L and 34.8 nmol/L | [QST] in plasma (SC 10 mg/kg single dose, 8 h, individual mice, 10 mg/kg): 7.48 nmol/L and 13.4 nmol/L and 15.5 nmol/L | [QST] in plasma (SC 10 mg/kg single dose, 24 h, individual mice, 10 mg/kg): 0.909 nmol/L and 0.187 nmol/L and 0.208 nmol/L | concentration at 8 h (male, Foxn1nu athymic nude, mouse, plasma, ip, 10 mg/kg, IP 10 mg/kg single dose, 8 h, individual mice, read-out: [QST] in plasma): 15.9 nM | concentration at 24 h (male, Foxn1nu athymic nude, mouse, plasma, ip, 10 mg/kg, IP 10 mg/kg single dose, 24 h, individual mice, read-out: [QST] in plasma): 1.2 nM | concentration at 0.5 h (male, Foxn1nu athymic nude, mouse, plasma, oral, 10 mg/kg, OG 10 mg/kg single dose, 0.5 h, individual mice, read-out: [QST] in plasma): 8.17 nM | concentration at 1 h (male, Foxn1nu athymic nude, mouse, plasma, oral, 10 mg/kg, OG 10 mg/kg single dose, 1 h, individual mice, read-out: [QST] in plasma): 7.64 nM | concentration at 2 h (male, Foxn1nu athymic nude, mouse, plasma, oral, 10 mg/kg, OG 10 mg/kg single dose, 2 h, individual mice, read-out: [QST] in plasma): 8.86 nM | concentration at 6 h (male, Foxn1nu athymic nude, mouse, plasma, oral, 10 mg/kg, OG 10 mg/kg single dose, 6 h, individual mice, read-out: [QST] in plasma): 4.91 nM | concentration at 24 h (male, Foxn1nu athymic nude, mouse, plasma, oral, 10 mg/kg, OG 10 mg/kg single dose, 24 h, individual mice, read-out: [QST] in plasma): 0.81 nM | concentration at 0.5 h (male, Foxn1nu athymic nude, mouse, plasma, sc, 10 mg/kg, SC 10 mg/kg single dose, 0.5 h, individual mice, read-out: [QST] in plasma): 300 nM | concentration at 1 h (male, Foxn1nu athymic nude, mouse, plasma, sc, 10 mg/kg, SC 10 mg/kg single dose, 1 h, individual mice, read-out: [QST] in plasma): 418 nM | concentration at 8 h (male, Foxn1nu athymic nude, mouse, plasma, IP 10 mg/kg single dose, 8 h, individual mice, read-out: [QST] in plasma): 25.7 nM | AUC(0-t) (male, mouse, plasma, oral, OG): 0.106 µM·h | AUC(0-t) (male, mouse, plasma, IP): 1.2 µM·h | AUC(0-t) (male, mouse, plasma, SC): 1.19 µM·h
